For the assay, the target named is T1, mTOR (Homo sapiens, UniProt P42345).
T1 construct: purchased Invitrogen PR8683A
Description: mTOR HTR-FRET assay. Format: biochemical. To be noted: read-out: Act. Level (IC50 in mTor HTR-FRET assay). Summed up:
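Test compounds, taken from 10 mM DMSO stocks and diluted, were mixed with mTOR enzyme (0.200 μg/mL) in Tris buffer pH 7.4 with 100 mM NaCl, 0.1% Tween-20 and 1 mM DTT. ATP/substrate addition initiated the reaction, alongside compound-free controls.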

T1 sequence (P42345 1360-2549 limits assumed): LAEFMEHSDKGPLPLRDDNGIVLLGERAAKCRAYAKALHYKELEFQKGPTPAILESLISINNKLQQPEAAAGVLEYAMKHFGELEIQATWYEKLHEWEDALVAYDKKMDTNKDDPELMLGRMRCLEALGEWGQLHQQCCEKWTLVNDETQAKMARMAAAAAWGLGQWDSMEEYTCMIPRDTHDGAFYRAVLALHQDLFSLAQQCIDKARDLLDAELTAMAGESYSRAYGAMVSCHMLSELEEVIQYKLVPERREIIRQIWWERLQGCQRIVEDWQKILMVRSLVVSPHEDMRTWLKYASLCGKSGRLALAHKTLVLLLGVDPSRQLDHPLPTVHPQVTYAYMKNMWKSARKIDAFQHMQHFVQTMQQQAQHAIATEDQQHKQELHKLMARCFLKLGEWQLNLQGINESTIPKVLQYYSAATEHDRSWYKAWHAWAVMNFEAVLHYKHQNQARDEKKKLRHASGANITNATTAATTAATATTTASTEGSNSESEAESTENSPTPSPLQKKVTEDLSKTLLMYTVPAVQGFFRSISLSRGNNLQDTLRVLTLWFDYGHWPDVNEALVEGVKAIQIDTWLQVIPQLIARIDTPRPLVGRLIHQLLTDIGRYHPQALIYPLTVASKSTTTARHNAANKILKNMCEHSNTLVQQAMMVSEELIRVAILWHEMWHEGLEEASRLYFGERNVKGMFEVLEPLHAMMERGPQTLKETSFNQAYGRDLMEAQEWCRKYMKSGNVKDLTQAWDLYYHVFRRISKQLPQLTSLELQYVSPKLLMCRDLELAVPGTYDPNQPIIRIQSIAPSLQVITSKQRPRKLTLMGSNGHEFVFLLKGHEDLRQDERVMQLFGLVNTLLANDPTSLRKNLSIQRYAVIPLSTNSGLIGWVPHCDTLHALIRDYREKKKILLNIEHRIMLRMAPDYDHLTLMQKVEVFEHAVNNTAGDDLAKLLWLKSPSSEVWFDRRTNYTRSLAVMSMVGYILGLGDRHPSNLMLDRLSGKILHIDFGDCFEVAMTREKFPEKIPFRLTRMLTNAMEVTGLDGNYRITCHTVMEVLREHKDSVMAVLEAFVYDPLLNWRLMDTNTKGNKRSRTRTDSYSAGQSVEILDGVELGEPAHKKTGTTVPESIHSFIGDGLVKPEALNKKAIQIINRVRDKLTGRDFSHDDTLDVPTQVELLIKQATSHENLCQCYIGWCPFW

With `CO[C@H]1CC[C@H](CN2C(=O)CNc3ncc(-c4cnc(-c5nc[nH]n5)cc4C)nc32)CC1` [Example 204, 1-((trans-4-methoxycyclohexyl)methyl)-7-(4-methyl-6-(1H-1,2,4-triazol-3-yl)pyridin-3-yl)-3,4-dihydropyrazino[2,3-b]pyrazin-2(1H)-one], the IC50 fell in the range of 0.005 to 250 nM.

As for `NC(=O)c1cccc(-c2cnc3c(n2)N(CCC2CCOCC2)C(=O)CN3)c1` [Example 205, 3-(7-oxo-8-(2-(tetrahydro-2H-pyran-4-yl)ethyl)-5,6,7,8-tetrahydropyrazino[2,3-b]pyrazin-2-yl)benzamide], the IC50 lay in the range of 1000 to 10000 nM. As to `CO[C@H]1CC[C@H](CN2C(=O)CNc3ncc(-c4cnc(C(N)=O)cc4C)nc32)CC1` [Example 206, 5-(8-((trans-4-methoxycyclohexyl)methyl)-7-oxo-5,6,7,8-tetrahydropyrazino[2,3-b]pyrazin-2-yl)-4-methylpicolinamide], the IC50 was 1000 to 10000 nM.

With `CC(C)(O)c1ccc(-c2cnc3c(n2)N(Cc2cccc(C#N)c2)C(=O)CN3)cn1` [Example 207, 3-((7-(6-(2-hydroxypropan-2-yl)pyridin-3-yl)-2-oxo-3,4-dihydropyrazino[2,3-b]pyrazin-1(2H)-yl)methyl)benzonitrile], the IC50 lay in the range of 0.005 to 250 nM.

With `CO[C@@H]1CC[C@@H](N2C(=O)CNc3ncc(-c4ccc(C(C)(C)O)nc4)nc32)C1` [Example 208, 7-(6-(2-hydroxypropan-2-yl)pyridin-3-yl)-1-((1R,3R)-3-methoxycyclopentyl)-3,4-dihydropyrazino[2,3-b]pyrazin-2(1H)-one], the IC50 lay in the range of 0.005 to 250 nM.

As for `CO[C@@H]1CC[C@H](N2C(=O)CNc3ncc(-c4ccc(C(C)(C)O)nc4)nc32)C1` [Example 209, 7-(6-(2-hydroxypropan-2-yl)pyridin-3-yl)-1-((1S,3R)-3-methoxycyclopentyl)-3,4-dihydropyrazino[2,3-b]pyrazin-2(1H)-one], the IC50 was 0.005 to 250 nM.

For `CO[C@H]1CC[C@H](N2C(=O)CNc3ncc(-c4ccc(C(C)(C)O)nc4)nc32)C1` [Example 210, 7-(6-(2-hydroxypropan-2-yl)pyridin-3-yl)-1-((1S,3S)-3-methoxycyclopentyl)-3,4-dihydropyrazino[2,3-b]pyrazin-2(1H)-one], the IC50 was 0.005 to 250 nM. For `CO[C@H]1CC[C@@H](N2C(=O)CNc3ncc(-c4ccc(C(C)(C)O)nc4)nc32)C1` [Example 211, 7-(6-(2-hydroxypropan-2-yl)pyridin-3-yl)-1-((1R,3S)-3-methoxycyclopentyl)-3,4-dihydropyrazino[2,3-b]pyrazin-2(1H)-one] the value was 0.005 to 250 nM; for `O=C1CNc2ncc(-c3ccc4cn[nH]c4c3)nc2N1CCC1CCOCC1` [Example 212, 7-(1H-indazol-6-yl)-1-(2-(tetrahydro-2H-pyran-4-yl)ethyl)-3,4-dihydropyrazino[2,3-b]pyrazin-2(1H)-one], 0.005 to 250 nM. The same measure for `CC(C)(O)c1ccc(-c2cnc3c(n2)N(CCN2CCOCC2)C(=O)CN3)cn1` [Example 216, 7-(6-(2-hydroxypropan-2-yl)pyridin-3-yl)-1-(2-morpholinoethyl)-3,4-dihydropyrazino[2,3-b]pyrazin-2(1H)-one]: 0.005 to 250 nM; for `O=C1CNc2ncc(-c3cnc4nc[nH]c4c3)nc2N1CCC1CCOCC1` [Example 218, 7-(1H-imidazo[4,5-b]pyridin-6-yl)-1-(2-(tetrahydro-2H-pyran-4-yl)ethyl)-3,4-dihydropyrazino[2,3-b]pyrazin-2(1H)-one]: 1000 to 10000 nM. The same measure for `NC(=O)c1ccc(-c2cnc3c(n2)N(CCC2CCOCC2)C(=O)CN3)cc1` [Example 222, 4-(7-oxo-8-(2-(tetrahydro-2H-pyran-4-yl)ethyl)-5,6,7,8-tetrahydropyrazino[2,3-b]pyrazin-2-yl)benzamide]: 0.005 to 250 nM; for `O=C1CNc2ncc(-c3ccc4[nH]ncc4c3)nc2N1CCC1CCOCC1` [Example 223, 7-(1H-indazol-5-yl)-1-(2-(tetrahydro-2H-pyran-4-yl)ethyl)-3,4-dihydropyrazino[2,3-b]pyrazin-2(1H)-one]: 500 to 1000 nM; for `O=C1CNc2ncc(-c3cnc4[nH]ccc4c3)nc2N1CCC1CCOCC1` [Example 224, 7-(1H-pyrrolo[2,3-b]pyridin-5-yl)-1-(2-(tetrahydro-2H-pyran-4-yl)ethyl)-3,4-dihydropyrazino[2,3-b]pyrazin-2(1H)-one]: 0.005 to 250 nM. As for `CO[C@@H]1CC[C@H](N2C(=O)CNc3ncc(-c4ccc(-c5nnc[nH]5)nc4C)nc32)C1` [Example 226, 1-((1S,3R)-3-methoxycyclopentyl)-7-(2-methyl-6-(4H-1,2,4-triazol-3-yl)pyridin-3-yl)-3,4-dihydropyrazino[2,3-b]pyrazin-2(1H)-one], the IC50 lay in the range of 0.005 to 250 nM. Take `CO[C@@H]1CC[C@@H](N2C(=O)CNc3ncc(-c4ccc(-c5nnc[nH]5)nc4C)nc32)C1` [Example 227, 1-((1R,3R)-3-methoxycyclopentyl)-7-(2-methyl-6-(4H-1,2,4-triazol-3-yl)pyridin-3-yl)-3,4-dihydropyrazino[2,3-b]pyrazin-2(1H)-one]: the IC50 is 0.005 to 250 nM. The same measure for `CO[C@H]1CC[C@@H](N2C(=O)CNc3ncc(-c4ccc(-c5nnc[nH]5)nc4C)nc32)C1` [Example 228, 1-((1R,3S)-3-methoxycyclopentyl)-7-(2-methyl-6-(4H-1,2,4-triazol-3-yl)pyridin-3-yl)-3,4-dihydropyrazino[2,3-b]pyrazin-2(1H)-one]: 0.005 to 250 nM; for `CO[C@H]1CC[C@H](N2C(=O)CNc3ncc(-c4ccc(-c5nnc[nH]5)nc4C)nc32)C1` [Example 229, 1-((1S,3S)-3-methoxycyclopentyl)-7-(2-methyl-6-(4H-1,2,4-triazol-3-yl)pyridin-3-yl)-3,4-dihydropyrazino[2,3-b]pyrazin-2(1H)-one]: 0.005 to 250 nM. For `O=C1CNc2ncc(-c3ccc4cc[nH]c4c3)nc2N1CCC1CCOCC1` [Example 232, 7-(1H-indol-6-yl)-1-(2-(tetrahydro-2H-pyran-4-yl)ethyl)-3,4-dihydropyrazino[2,3-b]pyrazin-2(1H)-one] the value was 250 to 500 nM. The same measure for `CO[C@H]1CC[C@H](N2C(=O)CNc3ncc(-c4ccc(C(C)(C)O)cc4)nc32)CC1` [Example 233, 7-(4-(2-hydroxypropan-2-yl)phenyl)-1-(trans-4-methoxycyclohexyl)-3,4-dihydropyrazino[2,3-b]pyrazin-2(1H)-one]: 0.005 to 250 nM; for `CNc1nc2c(C)cc(-c3cnc4c(n3)N(CCOC)C(=O)CN4)cc2[nH]1` [Example 237, 1-(2-methoxyethyl)-7-(4-methyl-2-(methylamino)-1H-benzo[d]imidazol-6-yl)-3,4-dihydropyrazino[2,3-b]pyrazin-2(1H)-one]: 0.005 to 250 nM; for `Cc1cc(-c2cnc3c(n2)N(CC2CCOCC2)C(=O)CN3)cc2[nH]c(=O)[nH]c12` [Example 238, 7-(7-methyl-2-oxo-2,3-dihydro-1H-benzo[d]imidazol-5-yl)-1-((tetrahydro-2H-pyran-4-yl)methyl)-3,4-dihydropyrazino[2,3-b]pyrazin-2(1H)-one]: 500 to 1000 nM. For the compound `Cc1cc(-c2nnc[nH]2)ccc1-c1cnc2c(n1)NC(=O)CN2` [Example 239, 7-(2-methyl-4-(4H-1,2,4-triazol-3-yl)phenyl)-3,4-dihydropyrazino[2,3-b]pyrazin-2(1H)-one], the IC50 fell in the range of 0.005 to 250 nM.

The values above are taken from US11292796B2 (SIGNAL PHARMACEUTICALS, LLC, priority 2008, dated 2022).
